Results on five compounds are retold here after patent US20220041591A1, “COMPOUNDS FOR TREATING DIABETES AND/OR RELATED CONDITIONS” (AUCKLAND UNISERVICES LIMITED, priority 2018, published 2022).

One data set addresses T1, human amylin (hA) (Homo sapiens, UniProt P10997).
T1 construct: Human amylin, also known as islet amylin amyloid polypeptide (IAPP), is a 37-residue peptide hormone
T1 sequence (P10997 34-70 limits assumed): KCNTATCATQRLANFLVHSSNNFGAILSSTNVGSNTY
Kind of data set: Thioflavin-T assay, inhibition of amylin fibril formation. Type of data set: biochemical. On the procedure:
The ability of the compounds to inhibit human amylin (hA) fibril formation was assessed using the thioflavin-T assay, as described in J. F. Aitken et al., Suppression by polycyclic compounds of the conversion of human amylin into insoluble amylin amyloid., Biochem J., 374 (2003), 779-784. Inhibition was assessed at three hA:compound ratios (1:1, 1:0.1, 1:0.01) for each compound.
The ability of the compounds to inhibit human amylin (hA) fibril formation was assessed using the thioflavin-T assay, as described in J. F. Aitken et al., Suppression by polycyclic compounds of the conversion of human amylin into insoluble amylin amyloid., Biochem J 374 (2003) 779-784. Inhibition was assessed at three hA:compound ratios (1:1, 1:0.1, 1:0.01) for each compound.

For data set [1] the following is noted: for soluble in water: pH 11; for solubility in words at acid pH: pH 1.8; for solubility in words at alkaline pH (1 M NaOH): pH 11.1.
Text: (§1) The compounds were titrated down to pH 8-9 with 1 M HCl and solubility determined immediately, and following overnight and longer term storage.
Light yellow solid. […] Add 1M NaOH.
Data set [2] is described as follows: Solubility and physical characteristics (1 M NaOH / 1 M HCl titration). The settings on record: for soluble during initial suspension and on titration and pH adjustment: Example 12, titrated down to pH 8-9 with 1 M HCl.
Text: as §1
Light yellow solid. […] Add 1M NaOH.

Structures are written as SMILES.

`COc1cccc(NC(=O)CC(=O)c2ccc(O)c(O)c2)n1` [Compound 1]: at human amylin (hA) (Example 12, FIG. 1B, hA:compound ratio 1:0.1), the “inhibition of hA fibril formation” value was “Inhibition of hA fibril formation was observed”. In data set [1], this compound displayed a soluble in water of 100%. Further, the “soluble during initial suspension and on titration and pH adjustment” value in data set [2] came to 100%.
For `O=c1cc(-c2ccc(O)cc2)nc2cccc(O)n12` [Compound 5], the “inhibition of hA fibril formation” value at human amylin (hA) (Example 14, ratio not stated at the place) was “little inhibition”. The “solubility at pH 7.4” value in data set [1] (pH 7.4) is listed as “lack of solubility”. In addition, in data set [1] (pH 10), the “solubility below pH 10” value is on record as “not soluble”. Also, the “solubility in words after adding 1 M NaOH again, pH 10.4” value in data set [1] (pH 10.4) is reported as “completely soluble”. Further, the “soluble on addition of 1 M NaOH” value in data set [1] (pH 10.6) was “approx. 70%”. Further, in data set [1] (pH 11.3), the “solubility in words after leaving 30 min in 1M NaOH” value is listed as “completely soluble”. Further, in data set [2] (Example 14), the “appearance after adding 1 M HCl, pH 8.9” value was “slightly cloudy, some precipitation”.
Turning to `O=c1cc(-c2cccc(O)c2)nc2cccc(O)n12` [Compound 6], in data set [1], the “solubility in words at acid pH” value was “Completely insoluble” and the “solubility in words at alkaline pH (1 M NaOH)” value is “Completely insoluble”.
As for `COc1ccc(-c2cc(=O)n3c(O)cccc3n2)cc1OC` [Compound 7], in data set [1], the “solubility in words at acid pH” value is “Completely insoluble” and the “solubility in words at alkaline pH (1 M NaOH)” value was “Completely insoluble”.
For the compound `COc1ccnc(NC(=O)CC(=O)c2ccc(O)c(O)c2)c1` [Compound 9], the soluble in water in data set [1] is recorded as 100%. In addition, in data set [2], the “soluble during initial suspension and on titration and pH adjustment” value is 95%.
